This note sets out measurements from ChEMBL document CHEMBL1126559, “Further studies of the structure-activity relationships of 1-[1-(2-benzo[b]thienyl)cyclohexyl]piperidine. Synthesis and evaluation of 1-(2-benzo[b]thienyl)-N,N-dialkylcyclohexylamines at dopamine uptake and phencyclidine binding sites” (J Med Chem, 1993).

In assay [1] the target is T1, Sodium-dependent dopamine transporter (Rattus norvegicus, UniProt P23977). The assay can be described thus: Tested for radioligand [3H]BTCP displacement from dopamine transporter in rat forebrain.
The target in assay [2] is T1, Sodium-dependent dopamine transporter. The assay can be described thus: Tested for inhibition of radioligand [3H]dopamine (DA) uptake in rat synaptosomes. Format: subcellular, Brain.
The target is the same in assay [3]. The assay can be described thus: Tested for radioligand [3H]cocaine displacement from dopamine transporter in rat forebrain.
Another assay addresses Glutamate NMDA receptor. The assay can be described thus: Tested for affinity by radioligand [3H]-TCP displacement from phencyclidine binding site (PCP) in rat homogenates.

The term IC50 denotes the concentration at which inhibition is half-maximal. A low value points to greater potency in that assay. The term Ki denotes a measure of affinity in units of concentration, obtained from inhibition or displacement. A higher Ki goes with a looser hold on the target.

Bounds are passed on as bounds.

T1 sequence (P23977 whole entry): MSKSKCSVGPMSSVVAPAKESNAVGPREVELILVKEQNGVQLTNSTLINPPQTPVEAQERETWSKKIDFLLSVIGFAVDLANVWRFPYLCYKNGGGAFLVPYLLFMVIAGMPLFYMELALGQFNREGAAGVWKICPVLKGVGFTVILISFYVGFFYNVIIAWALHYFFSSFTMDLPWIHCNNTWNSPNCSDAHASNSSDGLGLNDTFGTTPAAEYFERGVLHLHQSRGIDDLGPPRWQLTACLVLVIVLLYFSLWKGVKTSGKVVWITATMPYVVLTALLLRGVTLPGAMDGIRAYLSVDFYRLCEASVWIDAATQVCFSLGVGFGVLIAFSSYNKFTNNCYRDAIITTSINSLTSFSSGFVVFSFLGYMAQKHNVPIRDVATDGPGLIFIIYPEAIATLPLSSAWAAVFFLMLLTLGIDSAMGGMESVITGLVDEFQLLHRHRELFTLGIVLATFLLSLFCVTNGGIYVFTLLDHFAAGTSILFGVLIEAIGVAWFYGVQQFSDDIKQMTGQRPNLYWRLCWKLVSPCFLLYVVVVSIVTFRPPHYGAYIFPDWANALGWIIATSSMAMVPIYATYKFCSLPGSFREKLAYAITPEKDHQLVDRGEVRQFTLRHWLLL

For the compound `O=C(Cc1ccc(Cl)c(Cl)c1)NCCNC1(c2cc3ccccc3s2)CCCCC1`, the results for the IC50 in assay [1], in assay [2] and in assay [3] were 579 nM, 947 nM and 1480 nM, respectively. Further, at Glutamate NMDA receptor, the Ki was greater than 10000 nM.
The corresponding values for `CNCCNC1(c2cc3ccccc3s2)CCCCC1` are 17 nM, 29 nM, 63 nM and greater than 10000 nM.
Take `Clc1ccc(CCNCCNC2(c3cc4ccccc4s3)CCCCC2)cc1Cl`: the 50% inhibitory concentration (IC50) in assay [1] amounted to 211 nM; in assay [2] it was 174 nM; in assay [3] it was 713 nM. Besides, the Ki at Glutamate NMDA receptor was greater than 10000 nM.
`c1ccc2sc(C3(NCC4CCC4)CCCCC3)cc2c1`: the IC50 stood at 4 nM in assay [1], 7 nM in assay [2] and 37 nM in assay [3]. Further, the Ki at Glutamate NMDA receptor is greater than 10000 nM.
In the case of `c1ccc2sc(C3(NCC4CC4)CCCCC3)cc2c1`, the IC50 in assay [1] was found to be 1 nM; in assay [2] it was 4 nM; in assay [3], 23 nM. The Ki at Glutamate NMDA receptor is greater than 10000 nM.
As for `CC(C)=CCNC1(c2cc3ccccc3s2)CCCCC1`, the results for the IC50 in assay [1], in assay [2] and in assay [3] were 8 nM, 14 nM and 50 nM, respectively. On Glutamate NMDA receptor, this compound showed an inhibition constant Ki greater than 10000 nM.
With `NCCNC1(c2cc3ccccc3s2)CCCCC1`, the figures for the 50% inhibitory concentration (IC50) in assay [1], in assay [2] and in assay [3] were 30 nM, 88 nM and 170 nM, respectively. Further, the Ki on Glutamate NMDA receptor was greater than 10000 nM.
Regarding `c1ccc2sc(C3(N4CCCCC4)CCCCC3)cc2c1`, the IC50 was determined as 11 nM in assay [2] and 39 nM in assay [3]. Also, at Glutamate NMDA receptor, the Ki was greater than 10000 nM.
As for `CCCCNC1(c2cc3ccccc3s2)CCCCC1`, the 50% inhibitory concentration (IC50) in assay [1] turned out to be 0.3 nM; in assay [2] it was 7 nM; in assay [3] it was 60 nM. This compound also displayed an inhibitory constant (Ki) on Glutamate NMDA receptor greater than 10000 nM.
As for `CCCN(CCC)C1(c2cc3ccccc3s2)CCCCC1`, the values for the IC50 in assay [1], in assay [2] and in assay [3] were 37 nM, 81 nM and 220 nM, respectively. The same compound showed an inhibitory constant (Ki) at Glutamate NMDA receptor greater than 10000 nM.
Turning to `c1ccc(CNC2(c3cc4ccccc4s3)CCCCC2)cc1`, the IC50 in assay [1] amounted to 143 nM; in assay [2] it was 196 nM. This compound registered an inhibitory constant (Ki) at Glutamate NMDA receptor greater than 10000 nM.
Regarding `CCCCN(C)C1(c2cc3ccccc3s2)CCCCC1`, the IC50 in assay [1] is 21 nM; in assay [2] it was 33 nM; in assay [3], 161 nM. Further, the Ki at Glutamate NMDA receptor is greater than 10000 nM.
The corresponding values for `CCCCN(CCCC)C1(c2cc3ccccc3s2)CCCCC1` are 124 nM, 1360 nM, 386 nM and greater than 10000 nM.
For the compound `CCCCCNC1(c2cc3ccccc3s2)CCCCC1`, the half-inhibitory concentration (IC50) in assay [1] came out at 24 nM; in assay [2] it was 34 nM; in assay [3], 337 nM. At Glutamate NMDA receptor, the Ki is greater than 10000 nM.
On the same counts, the results for `CNC1(c2cc3ccccc3s2)CCCCC1` are 101 nM, 57 nM, 270 nM and greater than 10000 nM.
On the same counts, the results for `CNCCCNC1(c2cc3ccccc3s2)CCCCC1` are 8 nM, 89 nM, 746 nM and greater than 10000 nM.
With `CNCCCCNC1(c2cc3ccccc3s2)CCCCC1`, the 50% inhibitory concentration (IC50) in assay [1] came to 50 nM; in assay [2], 33 nM; in assay [3] it was 328 nM. The compound also yielded a Ki at Glutamate NMDA receptor greater than 10000 nM.
Take `CCCN(CC)C1(c2cc3ccccc3s2)CCCCC1`: the results for the IC50 in assay [1], in assay [2] and in assay [3] were 20 nM, 17 nM and 207 nM, respectively. This compound returned an inhibition constant (Ki) on Glutamate NMDA receptor greater than 10000 nM.
On the same counts, the results for `CCN(CC)C1(c2cc3ccccc3s2)CCCCC1` are 12 nM, 12 nM, 42 nM and greater than 10000 nM.
Take `O=C1NCCN1C1(c2cc3ccccc3s2)CCCCC1`: the IC50 in assay [1] was 1740 nM; in assay [2] it was 2120 nM; in assay [3], greater than 5000 nM. Further, the Ki at Glutamate NMDA receptor is greater than 10000 nM.
`NCCCNC1(c2cc3ccccc3s2)CCCCC1` came in with a Ki on Glutamate NMDA receptor greater than 10000 nM.
`CCNC1(c2cc3ccccc3s2)CCCCC1`: the IC50 in assay [1] is 22 nM; in assay [2] it was 22 nM; in assay [3], 165 nM. Further, at Glutamate NMDA receptor, the inhibition constant Ki was greater than 10000 nM.
For `NCC(=O)NC1(c2cc3ccccc3s2)CCCCC1`, the results for the IC50 in assay [1], in assay [2] and in assay [3] were 114 nM, 138 nM and 841 nM, respectively. Besides, at Glutamate NMDA receptor, the Ki is greater than 10000 nM.
Consider `CN(C)C1(c2cc3ccccc3s2)CCCCC1`, for which the half-maximal inhibitory concentration (IC50) in assay [1] worked out at 27 nM; in assay [2] it was 51 nM; in assay [3], 84 nM. Besides, the inhibition constant Ki on Glutamate NMDA receptor is greater than 10000 nM.
On to `Clc1ccc(CCNC2(c3cc4ccccc4s3)CCCCC2)cc1Cl`, for which the figures for the 50% inhibitory concentration (IC50) in assay [1], in assay [2] and in assay [3] were 1000 nM, greater than 5000 nM and greater than 5000 nM, respectively. The same compound yielded a Ki at Glutamate NMDA receptor greater than 10000 nM.
Regarding `CCCNC1(c2cc3ccccc3s2)CCCCC1`, the IC50 was determined as 4 nM in assay [1], 5 nM in assay [2] and 57 nM in assay [3]. On Glutamate NMDA receptor, this compound showed an inhibition constant (Ki) greater than 10000 nM.
On to `C=CCNC1(c2cc3ccccc3s2)CCCCC1`, for which the IC50 was 7 nM in assay [1], 11 nM in assay [2] and 57 nM in assay [3]. The same compound returned an inhibition constant (Ki) at Glutamate NMDA receptor greater than 10000 nM.
As to `COC(=O)[C@H]1[C@@H](OC(=O)c2ccccc2)C[C@@H]2CC[C@H]1N2C` [COCAINE], the Ki on Glutamate NMDA receptor was greater than 10000 nM.
